# Measurements published in US12673106B2, “Modulators of nuclear receptor subfamily 4 group A member 1 (NR4A1) and uses thereof” (University of Florida Research Foundation, Incorporated, priority 2020, dated 2026).
# How the values were obtained:
# NR4A1 [1] = molecular target: T1, NR4A1 (Homo sapiens, UniProt P22736); assay: E3 ligase-mediated NR4A1 degradation in transfected HEK293T cells (immunoblotting); type: cell-based; conditions: HEK293T transfected with NR4A1, with or without CRBN or VHL; 3 μM, 6 hrs
# Protocol: FIG. 4A. Efficiency of NR4A1-Ps in protein degradation using 3 examples of NR4A1-Ps based on CRBN (NR-C91, 92, 93) and 4 based on VHL (NR-V03, 04, 07, 50), with NR-V04 showing the best efficacy in NR4A1 degradation. FIG. 4B. NR4A1 degradation is mediated by targeted E3 ligases. HEK293T cells were transfected with NR4A1, with or without overexpression of CRBN or VHL. 36 hrs after transfection, cells were treated with 3 μM of NR-C91 or NR-V04 for 6 hrs for immunoblotting.
# (§1) Developing NR4A1-Ps. Due to the diverse function of NR4A1 in different cancer types, both agonistic and antagonistic ligands of NR4A1 are of interest in development (25). […] 4 cytosporone-B-based and 10 celastrol-based NR4A1-Ps using polyethylene glycol (PEG) linkers of various length have already been synthesized (FIG. 3 showing several examples).
# NR4A1 [2] = molecular target: T1, NR4A1; assay: Degradation of endogenous NR4A1 in T47D breast cancer cells; type: cell-based; parameters: degrade endogenous NR4A1 in T47D breast cancer cells; endogenous in cells; host or cells: T47D breast cancer cells; conditions: 1 μM
# MCF7-Tam cells = assay: MTS viability assay, MCF7-Tam cells; type: cell-based; conditions: relative to celastrol or NR-V04-NT
# Description: (§2) NR4A1-Ps selectively kill breast cancer cells. Since NR-V04 is very efficient in NR4A1 degradation, a negative control, NR-V04-NT, was synthesized.
# OT-1 CD8 T cells = assay: OVA peptide-induced exhaustion of OT-1 CD8 T cells, flow cytometry; type: cell-based, mouse; conditions: 1 μM
# Protocol: Splenic CD8+ T cells were purified from OT-1 transgenic mice, treated with 10 ng/ml of OVA peptides for 5 days, following with NR-V04 treatment at 250 nM, 500 nM or 1 μM. CD39+, granzyme B+(P<0.0001), Lag3+ or PD-1+CD8 T cells (P<0.05) were quantitated using flow cytometry.
# To induce antigen specific exhaustion of CD8^+ T cells, we purified CD8^+ T cells from OT-1 mice that expresses T cell receptor targeting OVA antigen. We treated these OT-1 CD8 T cells with OVA peptide for 5 days to induce their exhaustion, following with NR-V04 treatment with various concentrations.
# B16F10 melanoma [3] = assay: B16F10 melanoma model in C57BL/6J mice; type: in vivo, mouse
# Protocol: (§3) FIG. 10A-10C. […] Tumor growth were monitored via palpation. N=7 mice/group. FIG. 10A and FIG. 10B are the same experiment, but FIG. 10B includes only control vehicle and NR-V04 treated groups in FIG. 10B.
# (§4) FIG. 13A-FIG. 13C. Influence of NR-V04 treatment on TI-Tregs from (FIG. 13A) B16F10 melanoma, 1.8 mg/kg twice weekly for 3 weeks; (FIG. 13B) RENCA renal cancer model, 20 mg/kg once a week for 3 weeks; (FIG. 13C-13D) Py8119 breast cancer model, 8 mg/kg once a week for 3 weeks; with FIG. 13C showing the ratios between Treg/Tconv and FIG. 13D showing Treg/CD8+ T cell ratios.
# B16F10 melanoma [4] = assay: B16F10 melanoma model in NSG mice; type: in vivo, mouse; conditions: 1.8 mg/kg twice weekly for 3 weeks
# Description: as §3
# T47D cells = assay: MTS viability assay, T47D cells; type: cell-based; conditions: relative to celastrol or NR-V04-NT
# Description: as §2
# [5] = Body weight and T cell development in normal mice; type: in vivo, mouse; conditions: up to 3 weeks
# Description: Thymus (FIG. 12A) and spleen (FIG. 12B) were collected for T cell quantitation by flow cytometry.
# Py8119 cells = assay: Py8119 breast cancer model in C57/BL6 mice; type: in vivo, mouse
# Protocol: FIG. 7A-FIG. 7D. Py8119 cells were injected into #4 mammary fatpad of 8-week female C57/BL6 mice, following with vehicle or NR-V04 treatment i.p. at 8 mg/kg weekly, starting at day 15 after tumor cell injection. Body weight (FIG. 7A), tumor growth (data not shown), and immune cell profiling by flow cytometry from spleen, tumor, and blood were shown (FIG. 7B-7D). CD45+CD3+CD8+ T cells (FIG. 7B), CD45+CD3+CD4+T (FIG. 7C), and ratios of CD4+Foxp3+Tregs to total T cells (T), to total CD4 T cells (CD4), to total CD4conv (non Treg CD4 T cells), or to CD8 T cells (FIG. 7D) were shown. * P<0.05; ** P<0.01.
# as §4
# Syngeneic models for antitumor activities. Syngeneic tumor models include breast cancer models: 1) E0771 as luminal breast cancer (C57BL/6 background) (36-38), 2) Py8119 (C57BL/6) (37, 39, 40) and 3) 4T1 (Balb/C) (41, 42) as triple negative breast cancer, and 4) MT2 as HER2-positive breast cancer (FVB/N) (43, 44), all of which develop metastasis upon orthotopic tumor injections; 5) MC-38 colon cancer model; 6) Renca renal carcinoma model; 7) B16 melanoma models. MC-38 is known to be responsive to ICIs and Renca is known to respond of Treg suppression in their tumor growth. B16 is only partially responsive to ICI treatment when anti-CTLA-4 and anti-PD-1 are combined. Careful titration of the minimal cell numbers provides consistent tumor growth and/or metastasis. For testing the efficacy of NR-V04 or other leads, tumor-bearing mice will be treated with either non-targeting NR-V04-NT or NR-V04, or other leads, starting 14 days after tumor cell injection when 3-5 mm in diameter tumor growth is typically seen in all models. The dose and frequency will be used based on the data from SA1.2. Based on work on BCL-XL PROTAC (22), weekly injection of the leads should be sufficient to maintain effective doses in various tissues.
# human T cells from PBMC = assay: T cells from human PBMC of cancer patients, CD3/CD28 co-stimulated, flow cytometry; type: cell-based; conditions: 500 nM or 1 uM, two days
# Protocol: T cells were purified from human PBMC from cancer patients and co-stimulated with anti-CD3/CD28 dynabeads for 3 days, following with DMSO, 500 nM or 1 uM of NR-V04 treatment for two days. FIG. 14A-14B, different sub-population of T cell numbers were quantitated via flow cytometry (FIG. 14A), with Treg panel separated (FIG. 14B).
# In agreement with the in vivo models, we also activated all human T cells from PBMC of cancer patients, following with the treatment of various concentrations of NR-V04.
# RENCA cells = assay: RENCA renal cancer model in Balb/C mice; type: in vivo, mouse
# Protocol: RENCA cells (10,000 per injection) were injected into s.c. of 8-week Balb/C mice, following with vehicle or NR-V04 treatment i.p. at 8 mg/kg weekly, starting at day 15 after tumor cell injection. Tumor volume was recorded.
# as §4
# Some of the above tumor models will be included, initially using immune responsive tumors including RENCA and MC38 model. […] Tumor volumes will be determined twice weekly by a caliper and calculated as length×width^2×0.5. Animal will be terminated once the largest tumors reach 2 cm in diameter per IACUC protocol (size is justified to determine lung metastasis). • The parameters include: • Primary tumors—Tumors will be cut into pieces and used for: a) immunohistochemical (IHC) staining (embedding in OCT compound and freezing). […]
# NR4A1 [6] = molecular target: T2, NR4A1 (Mus musculus, UniProt P12813); assay: NR4A1 degradation in MC38 tumors of treated mice (tumor lysate immunoblotting); type: in vivo; conditions: MC38-tumor bearing mice, 1.8 mg/kg twice weekly for 3 weeks
# T2 construct: from tissue; host or cells: MC38 tumors from treated tumor-bearing mice (tumor lysates)
# Description: Tumor lysates were used for immunoblotting.
# as §1
# CD8+ T cells = assay: CD8 T cell activation in B16F10 tumor bearing mice, flow cytometry; type: in vivo, mouse; conditions: 1.8 mg/kg, one week (two doses)
# Protocol: B16F10 tumor bearing mice were treated with control vehicle or 1.8 mg/kg of NR-V04 for one week (two doses). CD8 T cells were analyzed for activation from tumors, spleen and blood. FIG. 15A. CD44+CD62L+(central memory, CM) and FIG. 15B. CD44+CD62L− (effector memory, EM) of CD8+ T cells were quantitated using flow cytometry.
# We also determined the impact of NR-V04 on exhaustion and activation of CD8^+ T cells.
# [7] = Pharmacokinetics in mouse, plasma by LC/MS/MS; type: in vivo
# Protocol: Plasma concentrations of NR-V04 were determined by LC/MS/MS (Instrument: AB Sciex 6500 (#15)) using service from BioDuro Inc, at different time points after mice receiving iv injection of 2 mg/kg or ip injection of 20 mg/kg. PK values for iv (2 mg/kg, FIG. 17A) or ip (20 mg/kg, FIG. 17B) are shown and summarized (FIG. 17C).
# PK was determined for NR-V04 for iv. injection of 2 mg/kg or ip injection of 20 mg/kg (FIG. 17).
# MCF10A = assay: MTS viability assay, MCF10A normal breast epithelial cells; type: cell-based, human; conditions: relative to celastrol
# Description: as §2
# [8] = Toxicity and body weight in tumor-bearing mice (FIG. 11); type: in vivo; conditions: 0.75 mg/kg celastrol twice weekly for 3 weeks
# Protocol: Body weight was recorded weekly.
# NR4A1 [9] = molecular target: T1, NR4A1; parameters: degrade endogenous NR4A1 in T47D breast cancer cells; endogenous in cells; host or cells: T47D breast cancer cells; conditions: NR4A1 ligand used as warhead; cited from earlier work
# T1 sequence (P22736 whole entry, species assumed): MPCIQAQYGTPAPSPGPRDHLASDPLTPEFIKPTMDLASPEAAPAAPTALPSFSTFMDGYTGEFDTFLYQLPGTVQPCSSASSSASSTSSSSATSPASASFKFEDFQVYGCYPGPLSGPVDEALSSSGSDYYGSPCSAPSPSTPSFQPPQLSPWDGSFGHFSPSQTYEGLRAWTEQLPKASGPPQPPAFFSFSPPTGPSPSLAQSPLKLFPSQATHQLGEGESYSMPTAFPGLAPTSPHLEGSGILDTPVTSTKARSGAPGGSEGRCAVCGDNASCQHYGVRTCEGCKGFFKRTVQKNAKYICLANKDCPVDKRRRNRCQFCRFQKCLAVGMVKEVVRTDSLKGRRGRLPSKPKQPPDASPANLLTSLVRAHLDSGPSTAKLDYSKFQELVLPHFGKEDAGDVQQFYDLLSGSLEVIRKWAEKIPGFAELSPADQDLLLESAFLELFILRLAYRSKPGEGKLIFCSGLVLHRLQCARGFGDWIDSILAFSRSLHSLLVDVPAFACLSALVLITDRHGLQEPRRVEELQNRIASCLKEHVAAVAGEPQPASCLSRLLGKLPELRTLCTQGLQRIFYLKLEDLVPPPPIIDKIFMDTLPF
# T2 sequence (P12813 whole entry): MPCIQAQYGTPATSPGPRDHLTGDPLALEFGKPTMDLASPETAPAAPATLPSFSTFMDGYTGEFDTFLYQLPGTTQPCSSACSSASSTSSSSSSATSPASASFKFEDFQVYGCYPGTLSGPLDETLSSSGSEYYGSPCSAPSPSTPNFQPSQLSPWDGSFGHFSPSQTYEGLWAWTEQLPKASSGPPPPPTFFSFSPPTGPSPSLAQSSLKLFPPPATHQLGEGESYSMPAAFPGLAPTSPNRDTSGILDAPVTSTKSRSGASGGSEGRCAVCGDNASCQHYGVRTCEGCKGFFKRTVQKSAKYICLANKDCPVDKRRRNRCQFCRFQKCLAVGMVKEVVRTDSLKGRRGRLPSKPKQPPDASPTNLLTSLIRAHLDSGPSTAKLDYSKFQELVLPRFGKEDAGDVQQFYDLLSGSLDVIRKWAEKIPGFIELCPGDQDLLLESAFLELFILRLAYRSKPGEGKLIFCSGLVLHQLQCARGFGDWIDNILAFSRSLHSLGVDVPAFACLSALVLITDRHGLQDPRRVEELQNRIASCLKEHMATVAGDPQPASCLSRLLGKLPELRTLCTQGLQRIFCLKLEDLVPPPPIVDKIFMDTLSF
smiles,measurement,setting,value
CC1=C(O)C(=O)C=C2C1=CC=C1[C@@]2(C)CC[C@@]2(C)[C@@H]3C[C@](C)(C(=O)NCCOCCNc4cccc5c4C(=O)N(C4CCC(=O)NC4=O)C5=O)CC[C@]3(C)CC[C@]12C (stereo partly drawn) [NR-C91],NR4A1 degradation with overexpression of the corresponding E3 ligase,NR4A1 [1],overexpression of their corresponding E3 ligases facilitated NR4A1-P-mediated degradation of NR4A1
same,NR4A1 degradation,NR4A1 [2],"led to the degradation of NR4A1, but not as efficiently as NR-V04"
CC1=C(O)C(=O)C=C2C1=CC=C1[C@@]2(C)CC[C@@]2(C)[C@@H]3C[C@](C)(C(=O)NCCOCCOCCOCCOCC(=O)N[C@H](C(=O)N4C[C@H](O)C[C@H]4C(=O)N[C@@H](C)c4ccc(-c5scnc5C)cc4)C(C)(C)C)CC[C@]3(C)CC[C@]12C [NR-V04],cell killing (% viability),MCF7-Tam cells,more robust killing relative to celastrol or NR-V04-NT
same,granzyme B+ active CD8 T cells,OT-1 CD8 T cells,increase
same,percent of Lag3+ exhausted CD8 T cells,OT-1 CD8 T cells,significantly reduced
same,percent of PD-1+ exhausted CD8 T cells,OT-1 CD8 T cells,significantly reduced
same,TI-Tregs,"B16F10 melanoma [3]; B16F10, 1.8 mg/kg twice weekly for 3 weeks",decreased TI-Tregs
same,tumor growth,"B16F10 melanoma [3]; B16F10 in C57BL/6J male mice, 1.8 mg/kg NR-V04 or 0.75 mg/kg celastrol twice weekly for 3 weeks",significantly reduces tumor growth
same,tumor suppressing effect,B16F10 melanoma [4],this effect is diminished
same,cell killing (% viability),T47D cells,more robust killing relative to celastrol or NR-V04-NT
same,body weight,[5],did not influence the body weight
same,development of T cells in thymus and spleen,[5],did not change the normal development of T cells
same,overall CD4+ and CD8+ T cells,"Py8119 cells; Py8119, 8 mg/kg i.p. weekly",without influencing overall CD4+ and CD8+ T cells
same,tumor-infiltrating Tregs versus effector T cell ratio,"Py8119 cells; Py8119, 8 mg/kg i.p. weekly",On-target decrease
same,tumor growth,"Py8119 cells; Py8119, 8 mg/kg i.p. weekly from day 15",Tumor growth difference was not observed
same,body weight,"Py8119 cells; Py8119, 8 mg/kg i.p. weekly, day 25 or 30",no difference in body weight
same,T cell populations other than Tregs,human T cells from PBMC,no impact on various T cell populations
same,Tregs,human T cells from PBMC,selectively elimination of Tregs
same,NR4A1 degradation with overexpression of the corresponding E3 ligase,NR4A1 [1],overexpression of their corresponding E3 ligases facilitated NR4A1-P-mediated degradation of NR4A1
same,tumor volume,RENCA cells; 8 mg/kg i.p. weekly from day 15,significant reduction
same,TI-Tregs,RENCA cells; 20 mg/kg once a week for 3 weeks,decreased TI-Tregs
same,degradation of NR4A1 within tumors,NR4A1 [6],efficient degradation of target protein NR4A1
same,central memory CD8+ T cells (CD44+CD62L+),CD8+ T cells,no significant change
same,effector memory population of CD8+ T cells (CD44+CD62L−),CD8+ T cells,significant increase
same,NR4A1 degradation,NR4A1 [2],best efficiency in inducing NR4A1 degradation
same,average half-life,[7]; ip injection 20 mg/kg,8.58 h
same,average half-life,[7]; iv injection 2 mg/kg,5.36 h
same,toxicity to normal cells (% viability),MCF10A,less toxic
CC1=C(O)C(=O)C=C2C1=CC=C1[C@@]2(C)CC[C@@]2(C)[C@@H]3C[C@](C)(C(=O)O)CC[C@]3(C)CC[C@]12C [celastrol],body weight,[8],significant body weight change
CCCCCCCC(=O)c1c(O)cc(O)cc1CC(=O)OCC [cytosporone-B],Kd,NR4A1 [9],1680 nM
